In patent EP0587106B1, “Compositions containing lipophilic salts having neutron activable cations” (VECTORPHARMA INTERNATIONAL S.p.A., priority 1992, dated 1994) one finds solubility data, which are given here for 1 molecule.

≈ marks a conversion by molar mass, not a printed value. Some results are limits rather than exact numbers.

As usually defined, the solubility is the dissolved amount per volume that the medium holds.

This data set in a line: physchem.

Consider `CCCCCCCCCCCCCC(=O)O` [Samarium miristate, samarium miristate], for which the solubility at 24 h was 90 µg/mL (≈ 394 µM) (pH 1.2), 8 µg/mL (≈ 35 µM) (pH 3), below 2 µg/mL (pH 5.2) and below 2 µg/mL (pH 7).
